Source: patent US20180246121A1, “IMMUNOLOGICAL TEST METHOD AND IMMUNOLOGICAL TEST KIT” (Fuso Parmaceutical Industries, Ltd., priority 2015, published 2018)

Columns and labels:
HMGB2 [1] = target: T1, HMGB2 (Homo sapiens, UniProt P26583); test: Competitive sandwich ELISA, immobilized anti-HMGB1 antibody HMa166 and HRP-labeled anti-HMGB1 antibody CP11-1: nonspecific reaction to HMGB2; type: binding; settings: 1,820 ng/mL HMGB2; HMGB2 peptide 0 to 1.0 mg/mL; labeled CP11-1
T1 sequence (P26583 1-209): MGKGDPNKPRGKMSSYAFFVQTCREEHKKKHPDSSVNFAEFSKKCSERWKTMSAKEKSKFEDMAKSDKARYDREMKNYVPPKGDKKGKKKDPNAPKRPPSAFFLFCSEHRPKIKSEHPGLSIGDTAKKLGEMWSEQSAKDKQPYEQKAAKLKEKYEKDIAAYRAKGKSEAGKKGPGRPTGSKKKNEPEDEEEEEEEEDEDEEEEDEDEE
Experimental: A 100 μL portion of 10 μg/mL anti-HMGB1 antibody HMa166 was added to a 96-well ELISA plate (Maxsorp, Nunc). Then, immobilization was carried out according to a standard method, and blocking was performed by dispensing 200 μL of ImmunoBlock (DS Pharma Biomedical) diluted five-fold in purified water. After washing with TBSt (10 mM Tris pH 7.4, 150 mM NaCl, 0.05% Tween-20), HMGB2 was added at 1,400 ng/mL, the mixture was allowed to react at room temperature for two hours followed by washing with TBSt, and an HRP-labeled anti-HMGB1 antibody CP11-1 was added. Then, after washing, chromogenic substrate TMBZ (KPL) was added according to a standard method. The reaction was stopped using phosphoric acid, and the absorbance at 450 nm was measured using a microplate reader. Furthermore, as a competitive agent, commercially available anti-HMGB2 antibodies shown in Table 1 were added to the reaction system at 10 μg/mL, and impairment of the reaction due to anti-HMGB2 antibodies was observed.
Furthermore, 0 to 1,300 μg/mL HMGB2 was measured by sandwich ELISA using the MHa166 antibody and the CP11-1 antibody, which were obtained by immunization with HMGB1, to observe how much HMGB2 reacts in ELISA using the MHa166 antibody and the CP11-1 antibody. […]

HMGB1 [2] = test: Sandwich ELISA, immobilized HMa166 and HRP-labeled CP11-1: HMGB1 measurement in the presence of an HMGB2 absorbent; type: binding, human; settings: 12.5 ng/mL HMGB1, HMGB2 peptide 0 to 1.0 mg/mL
Experimental: Then, the effects of each anti-HMGB2 antibody were observed.
By means of an ELISA system using immobilized anti-HMGB1 antibody MHa166 and an HRP-labeled anti-HMGB1 antibody CP11-1, it was examined whether nonspecific reactions by HMGB2 will be decreased when the reaction is achieved by 1,820 ng/mL HMGB2 in the presence of the HMGB2 peptide at 0 to 1.0 mg/mL (FIGS. 8B and 9B). In addition, effects of the coexisting HMGB2 peptide on HMGB1 measurements were similarly examined using 12.5 ng/mL HMGB1 (FIGS. 8A and 9A).

HMGB1 [3] = test: ELISA, immobilized HMa166 and HRP-labeled HMGB1 polyclonal antibody No. 12: HMGB1 measurement; type: binding, human; settings: 50 ng/mL HMGB1; peptide 0.5 mg/mL; labeled polyclonal antibody No. 12
Experimental: (§1) Anti-HMGB1 antibody HMa166 at 10 μg/mL was immobilized onto a 96-well ELISA plate (Maxsorp, Nunc), and blocking was performed by dispensing 200 μL of ImmunoBlock (DS Pharma Biomedical) diluted five-fold in purified water. After washing with TBSt (10 mM Tris pH 7.4, 150 mM NaCl, 0.05% Tween-20), HMGB1 was added at 50 ng/mL or HMGB2 was added at 1,820 ng/mL, […] The mixture was allowed to react at 37° C. for two hours followed by washing with TBSt. After adding HMGB1 polyclonal antibody No. 12 or No. 14 obtained by immunizing rabbits with a synthetic human HMGB1 peptide or a recombinant human HMGB1, each of which had been labeled with HRP, the mixture was reacted at room temperature for one hour. After the reaction, the plate was washed with TBSt, and chromogenic substrate TMBZ (KPL) was added according to a standard method, the reaction was stopped with phosphoric acid, and the absorbances at 450 nm were measured using a microplate reader, […]
(§2) Next, whether similar effects can be obtained with antibodies other than CP11-1 was examined. […]

HMGB2 [4] = target: T1, HMGB2; test: ELISA, immobilized HMa166 and HRP-labeled HMGB1 polyclonal antibody No. 12: nonspecific reaction to HMGB2; type: binding; settings: 1,820 ng/mL HMGB2; peptide 0.5 mg/mL; labeled polyclonal antibody No. 12
HMGB1 [5] = test: ELISA, immobilized HMa166 and HRP-labeled HMGB1 polyclonal antibody No. 14: HMGB1 measurement; type: binding, human; settings: 50 ng/mL HMGB1; peptide 0.5 mg/mL; labeled polyclonal antibody No. 14
Experimental: as §1, §2

HMGB2 [6] = target: T1, HMGB2; test: ELISA, immobilized HMa166 and HRP-labeled HMGB1 polyclonal antibody No. 14: nonspecific reaction to HMGB2; type: binding; settings: 1,820 ng/mL HMGB2; peptide 0.5 mg/mL; labeled polyclonal antibody No. 14
Experimental: Furthermore, whether commercially available anti-HMGB2 antibodies can suppress nonspecific reactions to HMGB2 even when the labelled antibody is changed was examined. Anti-HMGB1 antibody HMa166 at 10 μg/mL was immobilized onto a 96-well ELISA plate (Maxsorp, Nunc), and blocking was performed by dispensing 200 μL of ImmunoBlock (DS Pharma Biomedical) diluted five-fold in purified water. After washing with TBSt (10 mM Tris pH 7.4, 150 mM NaCl, 0.05% Tween-20), HMGB1 was added at 50 ng/mL or HMGB2 was added at 1,820 ng/mL, […] The mixture was allowed to react at 37° C. for two hours followed by washing with TBSt. After adding HMGB1 polyclonal antibody No. 12 or No. 14 obtained by immunizing rabbits with a synthetic human HMGB1 peptide or a recombinant human HMGB1, each of which had been labeled with HRP, the mixture was reacted at room temperature for one hour. After the reaction, the plate was washed with TBSt, and chromogenic substrate TMBZ (KPL) was added according to a standard method, the reaction was stopped with phosphoric acid, and the absorbances at 450 nm were measured using a microplate reader, to observe impairment of the reaction due to the anti-HMGB2 antibody.
as §2

HMGB1 [7] = test: ELISA, immobilized MHa166 and HRP-labeled monoclonal antibody HMa176: HMGB1 measurement; type: binding, human; settings: 50 ng/mL HMGB1, peptide 0.5 mg/mL
Experimental: Similar examinations were carried out for systems using another monoclonal antibody. It was examined how the reactions achieved by 50 ng/mL HMGB1 change when MHa176 antibody, which was obtained by immunization with HMGB1, were HRP-labeled and an HMGB2 peptide was allowed to coexist at a concentration of 0.5 mg/mL in an ELISA system with the immobilized anti-HMGB1 antibody MHa166 (FIG. 12A). Furthermore, effects of the coexisting HMGB2 peptide on HMGB2 measurements were similarly examined using 1,820 ng/mL HMGB2 (FIG. 12B).

Sequence	absorption of nonspecific reaction to HMGB2 by HMGB2 peptide (HMGB2 [1])	effect of HMGB2 peptide on measured values of HMGB1 (HMGB1 [2])	effect of HMGB2 peptide on measured values of HMGB1 (HMGB1 [2]; listed as HM2-2 peptide)	enhancement of the reaction with HMGB1 (HMGB1 [3])	effect of HMGB2 peptide on HMGB2 measurements (HMGB2 [4])	effect of HMGB2 peptide on HMGB1 measurements (HMGB1 [5])	neutralizing effects on HMGB2 (HMGB2 [6])	effect of HMGB2 peptide on reactivity of HMGB1 (HMGB1 [7])	effect of HMGB2 peptide on HMGB1 measurements (HMGB1 [3])
CREEHKKKHPDSSVNFAEFS [HM2-2, HMGB2-derived peptide, 23rd to 42nd amino acids of full-length human HMGB2]	absorbed nonspecific reactions to HMGB2 in a concentration-dependent manner	concentration-dependent reaction enhancement	concentration-dependent enhancement of the reaction	approximately 1.6 fold	attenuated	increased the reactivity of HMGB1	not observed	enhancement of reactivity of HMGB1	–
MGKGDPNKPRGKMSSYA [HM2-1, HMGB2-derived peptide, 1st to 17th amino acids of full-length human HMGB2]	able to absorb nonspecific reaction to HMGB2 in a concentration-dependent manner	hardly affected	–	–	did not affect	did not have any influence	not observed	–	did not affect
